# Results taken from patent publication US6180618A, “Propanolamine derivatives linked to bile acids, processes for their preparation, pharmaceuticals comprising these compounds, and their use” (Aventis Pharma Deutschland GmbH, priority 1998, dated 2001).
# Molecular target: T1, Na+-dependent bile acid transportation system (intestinal bile acid transportation system in the terminal small intestine) (Oryctolagus cuniculus, UniProt Q28727)
# T1 construct: from tissue; host or cells: brush border membrane vesicles from the terminal 7/10 of the small intestine (ileum) of male New Zealand rabbits
# T1 sequence (Q28727 1-347): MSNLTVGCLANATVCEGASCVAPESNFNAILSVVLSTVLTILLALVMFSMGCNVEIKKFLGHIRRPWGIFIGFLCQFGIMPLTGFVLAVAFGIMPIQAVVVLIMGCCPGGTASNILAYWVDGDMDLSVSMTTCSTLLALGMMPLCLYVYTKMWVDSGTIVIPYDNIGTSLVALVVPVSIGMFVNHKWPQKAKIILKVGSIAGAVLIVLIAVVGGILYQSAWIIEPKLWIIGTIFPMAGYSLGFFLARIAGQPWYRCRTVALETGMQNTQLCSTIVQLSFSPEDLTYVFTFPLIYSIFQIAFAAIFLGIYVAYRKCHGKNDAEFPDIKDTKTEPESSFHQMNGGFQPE
# Test: Inhibition of Na+-dependent [3H]-taurocholate uptake in brush border membrane vesicles of the ileum of rabbits
# Format: biochemical
# Details: quotient of IC50Na of reference taurochenedeoxycholate (TCDC) and IC50Na of test substance; rabbit ileum brush border membrane vesicles; 50 μM taurocholate
# Protocol: Biological testing of the compounds of the present invention was carried out by determining the inhibition of [^3 H]-taurocholate uptake in brush border membrane vesicles of the ileum of rabbits. The inhibition test was carried out as follows:
# 1. Preparation of brush border membrane vesicles from the ileum of rabbits
# Preparation of brush border membrane vesicles from the intestinal cells of the small intestine was carried out by the so-called Mg^2+ precipitation method. Male New Zealand rabbits (2 to 2.5 kg of body weight) were sacrificed by intravenous injection of 0.5 ml of T61®, an aqueous solution of 2.5 mg of tetracaine HCl, 100 mg of embutramide and 25 mg of mebezonium iodide. The small intestine was removed and rinsed with ice-cold physiological saline solution. The terminal 7/10 of the small intestine (measured in the oral-rectal direction, i.e., the terminal ileum, which contains the active Na^+ -dependent bile acid transportation system) was used for preparation of the brush border membrane vesicles. The intestines were frozen at -80° C. in plastic bags under nitrogen.
# For preparation of the membrane vesicles, the frozen intestines were thawed at 30° C. in a water-bath. The mucosa was scraped off and suspended in 60 ml of ice-cold 12 mM TRIS/HCl buffer (pH 7.1)/300 mM mannitol, 5 mM EGTA/10 mg/l of phenylmethylsulfonyl fluoride/1 mg/l of trypsin inhibitor from soybeans (32 U/mg)/0.5 mg/l of trypsin inhibitor from the bovine lung (193 U/mg)/5 mg/l of bacitracin. After dilution to 300 ml with ice-cold distilled water, the mixture was homogenized with an Ultraturrax (18-rod, IKA Werk Staufen, Germany) at 75% of the maximum for 3 minutes, while cooling with ice. After addition of 3 ml of 1 M MgCl2 solution (final concentration 10 mM), the mixture was left to stand at 0° C. for exactly 1 minute. By addition of Mg^2+, the cell membranes aggregated, and precipitated with the exception of the brush border membranes. After centrifugation at 3000× g (5000 rpm, SS-34 rotor) for 15 minutes, the precipitate was discarded and the supernatant, which contained the brush border membrane, was centrifuged at 48,000× g (20,000 rpm, SS-34 rotor) for 30 minutes. The supernatant was discarded and the precipitate was rehomogenized in 60 ml of 12 mM TRIS/HCl buffer (pH 7.1)/60 mM mannitol, 5 mM EGTA with a Potter Elvejhem homogenizer (Braun, Melsungen, 900 rpm, 10 strokes). After addition of 0.1 ml of 1 M MgCl2 solution and an incubation time of 15 minutes at 0° C., the mixture was centrifuged again at 3000× g for 15 minutes. The supernatant was then centrifuged again at 48,000× g (20,000 rpm, SS-34 rotor) for 30 minutes. The precipitate was taken up in 30 ml of 10 mM TRIS/HEPES buffer (pH 7.4)/300 mM mannitol and resuspended homogeneously by 20 strokes in a Potter Elvejhem homogenizer at 1000 rpm. After centrifugation at 48,000× g (20,000 rpm, SS-34 rotor) for 30 minutes, the precipitate was taken up in 0.5 to 2 ml of TRIS/HEPES buffer (pH 7.4)/280 mM mannitol (final concentration 20 mg/ml) and resuspended with the aid of a tuberculin syringe with a 27-gauge needle. The vesicles were either used directly for transportation studies after the preparation or stored at -196° C. in 4 mg portions in liquid nitrogen.
# 2. Inhibition of the Na^+ -dependent [^3 H]taurocholate uptake in brush border membrane vesicles of the ileum
# The uptake of substrates in the brush border membrane vesicles described above was determined by means of the so-called membrane filtration technique. 10 μl of the vesicle suspension (100 μg of protein) were pipetted as drops onto the wall of a polystyrene incubation tube (11×70 mm), which contained the incubation medium with the corresponding ligands (90 μl). […]
row,Structure (SMILES),IC5ONa -TCDC (μmol)/ IC50Na -compound (μmol)
1,CC(CCC(=O)NCCS(=O)(=O)O)C1CCC2C3C(O)CC4CC(NC(=O)CCC(=O)NC(CCCCNC(=O)OC(C)(C)C)C(=O)Nc5ccccc5C(Nc5ccccn5)C(c5ccccn5)C(O)c5ccccc5)CCC4(C)C3CC(O)C12C (centres unmarked) [Example 1k],1.59
2,CC(CCC(=O)O)C1CCC2C3C(O)CC4CC(NC(=O)CCC(=O)NCCCCC(N)C(=O)Nc5ccccc5C(Nc5ccccn5)C(c5ccccn5)C(O)c5ccccc5)CCC4(C)C3CC(O)C12C (centres unmarked) [Example 10],1.63
3,COC(=O)CCC(C)C1CCC2C3C(O)CC4CC(NC(=O)CCC(=O)NC(Cc5ccccc5)C(=O)N5CCCC5C(=O)Nc5ccccc5C(Nc5ccccn5)C(c5ccccn5)C(O)c5ccccc5)CCC4(C)C3CC(O)C12C (centres unmarked) [Example 2d],0.56
4,C[C@H](CCC(=O)O)[C@H]1CC[C@H]2[C@@H]3[C@H](O)C[C@@H]4C[C@@H](NC(=O)CCC(=O)Nc5ccc(C(Nc6ccccn6)C(c6ccccn6)C(O)c6ccccc6)cc5)CC[C@]4(C)[C@H]3C[C@H](O)[C@]12C (some centres unmarked) [Example 7],0.15
5,CC(CCC(=O)O)C1CCC2C3C(O)CC4CC(NC(=O)CCC(=O)NC(CCCCNC(=O)OC(C)(C)C)C(=O)Nc5ccccc5C(Nc5ccccn5)C(c5ccccn5)C(O)c5ccccc5)CCC4(C)C3CC(O)C12C (centres unmarked) [Example 1j],1.51
6,CC(CCC(=O)O)C1CCC2C3C(O)CC4CC(NC(=O)CCC(=O)NC(Cc5ccccc5)C(=O)N5CCCC5C(=O)Nc5ccccc5C(Nc5ccccn5)C(c5ccccn5)C(O)c5ccccc5)CCC4(C)C3CC(O)C12C (centres unmarked) [Example 2e],1.96
7,C[C@H](CCC(=O)Nc1ccccc1[C@@H](Nc1ccccn1)[C@H](c1ccccn1)[C@H](O)c1ccccc1)[C@H]1CC[C@H]2[C@@H]3[C@H](O)C[C@@H]4C[C@H](O)CC[C@]4(C)[C@H]3C[C@H](O)[C@]12C [Example 4],0.50
8,CC(CCC(=O)NCC(=O)O)C1CCC2C3C(O)CC4CC(NC(=O)CCC(=O)NC(CCCCNC(=O)OC(C)(C)C)C(=O)Nc5ccccc5C(Nc5ccccn5)C(c5ccccn5)C(O)c5ccccc5)CCC4(C)C3CC(O)C12C (centres unmarked) [Example 14],1.52
9,CC(CCC(=O)O)C1CC[C@H]2[C@@H]3[C@H](O)C[C@@H]4C[C@@H](NC(=O)CCC(=O)Nc5ccccc5C(Nc5ccccn5)C(c5ccccn5)C(O)c5ccccc5)CC[C@]4(C)[C@H]3C[C@H](O)[C@]12C (some centres unmarked) [Example 8],0.91
10,CC(CCC(=O)O)C1CCC2C3C(O)CC4CC(NC(=O)CCC(=O)NC(CCCCNC(=O)OC(C)(C)C)C(=O)Nc5ccccc5C(Nc5ccccn5)C(c5ccccn5)C(O)c5ccccc5)CCC4(C)C3CC(O)C12C (centres unmarked) [Example 12],2.58
11,COC(=O)CCC(C)C1CCC2C3C(O)CC4CC(NC(=O)CCC(=O)NCCCCC(N)C(=O)Nc5ccccc5C(Nc5ccccn5)C(c5ccccn5)C(O)c5ccccc5)CCC4(C)C3CC(O)C12C (centres unmarked) [Example 9],2.02
